Test results published in the NIST ThermoML archive (doi:10.1016/j.jct.2019.03.039).
Numbers after ± are expanded uncertainties.

Assay: mn = molality of the nth substance listed, in mol/kg
Conditions: 101.3 kPa, Liquid; for viscosity: Capillary tube (Ostwald / Ubbelohde) method; for speed of sound: Frequency=4 MHz, Linear variable-path acoustic interferometer; for mass density: Vibrating tube method

## N=C(N)NCCC[C@H](N)C(=O)O [L-arginine] + O
293.15 K, m1 = 0.05014
  viscosity: 1.032 ± 0.032 mPa·s
  speed of sound: 1487.6 ± 1.7 m/s
  mass density: 1000.72 ± 0.37 kg/m3
293.15 K, m1 = 0.1001
  viscosity: 1.054 ± 0.033 mPa·s
  speed of sound: 1492.7 ± 1.7 m/s
  mass density: 1003.17 ± 0.37 kg/m3
293.15 K, m1 = 0.15
  viscosity: 1.08 ± 0.033 mPa·s
  speed of sound: 1497.9 ± 1.8 m/s
  mass density: 1005.58 ± 0.37 kg/m3
293.15 K, m1 = 0.2
  viscosity: 1.107 ± 0.033 mPa·s
  speed of sound: 1503.2 ± 1.8 m/s
  mass density: 1007.92 ± 0.37 kg/m3
293.15 K, m1 = 0.25
  viscosity: 1.13 ± 0.033 mPa·s
  speed of sound: 1508.6 ± 1.8 m/s
  mass density: 1010.21 ± 0.37 kg/m3
293.15 K, m1 = 0.3001
  viscosity: 1.155 ± 0.033 mPa·s
  speed of sound: 1514.1 ± 1.8 m/s
  mass density: 1012.47 ± 0.37 kg/m3
298.15 K, m1 = 0.05014
  viscosity: 0.9151 ± 0.032 mPa·s
  speed of sound: 1502.4 ± 1.8 m/s
  mass density: 999.556 ± 0.37 kg/m3
298.15 K, m1 = 0.1001
  viscosity: 0.9358 ± 0.032 mPa·s
  speed of sound: 1507.5 ± 1.8 m/s
  mass density: 1001.99 ± 0.37 kg/m3
298.15 K, m1 = 0.15
  viscosity: 0.9586 ± 0.032 mPa·s
  speed of sound: 1512.7 ± 1.8 m/s
  mass density: 1004.36 ± 0.37 kg/m3
298.15 K, m1 = 0.2
  viscosity: 0.9766 ± 0.032 mPa·s
  speed of sound: 1518 ± 1.8 m/s
  mass density: 1006.68 ± 0.37 kg/m3
298.15 K, m1 = 0.25
  viscosity: 1 ± 0.032 mPa·s
  speed of sound: 1523.4 ± 1.8 m/s
  mass density: 1008.94 ± 0.37 kg/m3
298.15 K, m1 = 0.3001
  viscosity: 1.021 ± 0.033 mPa·s
  speed of sound: 1528.9 ± 1.8 m/s
  mass density: 1011.17 ± 0.37 kg/m3
303.15 K, m1 = 0.05014
  viscosity: 0.8179 ± 0.032 mPa·s
  speed of sound: 1514.5 ± 1.8 m/s
  mass density: 998.142 ± 0.37 kg/m3
303.15 K, m1 = 0.1001
  viscosity: 0.8355 ± 0.032 mPa·s
  speed of sound: 1519.6 ± 1.8 m/s
  mass density: 1000.55 ± 0.37 kg/m3
303.15 K, m1 = 0.15
  viscosity: 0.8555 ± 0.032 mPa·s
  speed of sound: 1524.8 ± 1.8 m/s
  mass density: 1002.9 ± 0.37 kg/m3
303.15 K, m1 = 0.2
  viscosity: 0.8718 ± 0.032 mPa·s
  speed of sound: 1530.1 ± 1.8 m/s
  mass density: 1005.19 ± 0.37 kg/m3
303.15 K, m1 = 0.25
  viscosity: 0.8909 ± 0.032 mPa·s
  speed of sound: 1535.5 ± 1.8 m/s
  mass density: 1007.45 ± 0.37 kg/m3
303.15 K, m1 = 0.3001
  viscosity: 0.9084 ± 0.032 mPa·s
  speed of sound: 1541 ± 1.8 m/s
  mass density: 1009.67 ± 0.37 kg/m3
308.15 K, m1 = 0.05014
  viscosity: 0.7362 ± 0.032 mPa·s
  speed of sound: 1524.3 ± 1.8 m/s
  mass density: 996.503 ± 0.37 kg/m3
308.15 K, m1 = 0.1001
  viscosity: 0.7512 ± 0.032 mPa·s
  speed of sound: 1529.4 ± 1.8 m/s
  mass density: 998.883 ± 0.37 kg/m3
308.15 K, m1 = 0.15
  viscosity: 0.7694 ± 0.032 mPa·s
  speed of sound: 1534.6 ± 1.8 m/s
  mass density: 1001.21 ± 0.37 kg/m3
308.15 K, m1 = 0.2
  viscosity: 0.7828 ± 0.032 mPa·s
  speed of sound: 1539.9 ± 1.8 m/s
  mass density: 1003.48 ± 0.37 kg/m3
308.15 K, m1 = 0.25
  viscosity: 0.7987 ± 0.032 mPa·s
  speed of sound: 1545.3 ± 1.8 m/s
  mass density: 1005.7 ± 0.37 kg/m3
308.15 K, m1 = 0.3001
  viscosity: 0.8144 ± 0.032 mPa·s
  speed of sound: 1550.8 ± 1.8 m/s
  mass density: 1007.89 ± 0.37 kg/m3
313.15 K, m1 = 0.05014
  viscosity: 0.6673 ± 0.032 mPa·s
  speed of sound: 1533.7 ± 1.8 m/s
  mass density: 994.671 ± 0.37 kg/m3
313.15 K, m1 = 0.1001
  viscosity: 0.6808 ± 0.032 mPa·s
  speed of sound: 1538.8 ± 1.8 m/s
  mass density: 997.036 ± 0.37 kg/m3
313.15 K, m1 = 0.15
  viscosity: 0.6951 ± 0.032 mPa·s
  speed of sound: 1544 ± 1.8 m/s
  mass density: 999.344 ± 0.37 kg/m3
313.15 K, m1 = 0.2
  viscosity: 0.7067 ± 0.032 mPa·s
  speed of sound: 1549.3 ± 1.8 m/s
  mass density: 1001.6 ± 0.37 kg/m3
313.15 K, m1 = 0.25
  viscosity: 0.7224 ± 0.032 mPa·s
  speed of sound: 1554.7 ± 1.8 m/s
  mass density: 1003.8 ± 0.37 kg/m3
313.15 K, m1 = 0.3001
  viscosity: 0.7345 ± 0.032 mPa·s
  speed of sound: 1560.3 ± 1.8 m/s
  mass density: 1005.97 ± 0.37 kg/m3

## N[C@@H](CO)C(=O)O [L-serine] + O
293.15 K, m1 = 0.05002
  viscosity: 1.011 ± 0.032 mPa·s
  speed of sound: 1485.7 ± 1.7 m/s
  mass density: 1000.49 ± 0.37 kg/m3
293.15 K, m1 = 0.1001
  viscosity: 1.022 ± 0.032 mPa·s
  speed of sound: 1488.9 ± 1.7 m/s
  mass density: 1002.74 ± 0.37 kg/m3
293.15 K, m1 = 0.15
  viscosity: 1.034 ± 0.032 mPa·s
  speed of sound: 1492.2 ± 1.7 m/s
  mass density: 1004.96 ± 0.37 kg/m3
293.15 K, m1 = 0.2003
  viscosity: 1.046 ± 0.033 mPa·s
  speed of sound: 1495.6 ± 1.7 m/s
  mass density: 1007.18 ± 0.37 kg/m3
293.15 K, m1 = 0.2502
  viscosity: 1.058 ± 0.033 mPa·s
  speed of sound: 1499.1 ± 1.7 m/s
  mass density: 1009.36 ± 0.37 kg/m3
293.15 K, m1 = 0.2999
  viscosity: 1.069 ± 0.033 mPa·s
  speed of sound: 1502.7 ± 1.8 m/s
  mass density: 1011.52 ± 0.37 kg/m3
298.15 K, m1 = 0.05002
  viscosity: 0.8972 ± 0.032 mPa·s
  speed of sound: 1500.4 ± 1.7 m/s
  mass density: 999.314 ± 0.37 kg/m3
298.15 K, m1 = 0.1001
  viscosity: 0.907 ± 0.032 mPa·s
  speed of sound: 1503.5 ± 1.8 m/s
  mass density: 1001.55 ± 0.37 kg/m3
298.15 K, m1 = 0.15
  viscosity: 0.9165 ± 0.032 mPa·s
  speed of sound: 1506.7 ± 1.8 m/s
  mass density: 1003.74 ± 0.37 kg/m3
298.15 K, m1 = 0.2003
  viscosity: 0.9277 ± 0.032 mPa·s
  speed of sound: 1510 ± 1.8 m/s
  mass density: 1005.94 ± 0.37 kg/m3
298.15 K, m1 = 0.2502
  viscosity: 0.9379 ± 0.032 mPa·s
  speed of sound: 1513.4 ± 1.8 m/s
  mass density: 1008.1 ± 0.37 kg/m3
298.15 K, m1 = 0.2999
  viscosity: 0.9477 ± 0.032 mPa·s
  speed of sound: 1516.9 ± 1.8 m/s
  mass density: 1010.23 ± 0.37 kg/m3
303.15 K, m1 = 0.05002
  viscosity: 0.8025 ± 0.032 mPa·s
  speed of sound: 1512.4 ± 1.8 m/s
  mass density: 997.896 ± 0.37 kg/m3
303.15 K, m1 = 0.1001
  viscosity: 0.8115 ± 0.032 mPa·s
  speed of sound: 1515.4 ± 1.8 m/s
  mass density: 1000.1 ± 0.37 kg/m3
303.15 K, m1 = 0.15
  viscosity: 0.8204 ± 0.032 mPa·s
  speed of sound: 1518.5 ± 1.8 m/s
  mass density: 1002.27 ± 0.37 kg/m3
303.15 K, m1 = 0.2003
  viscosity: 0.8295 ± 0.032 mPa·s
  speed of sound: 1521.7 ± 1.8 m/s
  mass density: 1004.44 ± 0.37 kg/m3
303.15 K, m1 = 0.2502
  viscosity: 0.8377 ± 0.032 mPa·s
  speed of sound: 1525 ± 1.8 m/s
  mass density: 1006.56 ± 0.37 kg/m3
303.15 K, m1 = 0.2999
  viscosity: 0.8466 ± 0.032 mPa·s
  speed of sound: 1528.4 ± 1.8 m/s
  mass density: 1008.66 ± 0.37 kg/m3
308.15 K, m1 = 0.05002
  viscosity: 0.723 ± 0.032 mPa·s
  speed of sound: 1522.1 ± 1.8 m/s
  mass density: 996.254 ± 0.37 kg/m3
308.15 K, m1 = 0.1001
  viscosity: 0.7313 ± 0.032 mPa·s
  speed of sound: 1525 ± 1.8 m/s
  mass density: 998.433 ± 0.37 kg/m3
308.15 K, m1 = 0.15
  viscosity: 0.7386 ± 0.032 mPa·s
  speed of sound: 1528 ± 1.8 m/s
  mass density: 1000.58 ± 0.37 kg/m3
308.15 K, m1 = 0.2003
  viscosity: 0.7463 ± 0.032 mPa·s
  speed of sound: 1531.1 ± 1.8 m/s
  mass density: 1002.72 ± 0.37 kg/m3
308.15 K, m1 = 0.2502
  viscosity: 0.7535 ± 0.032 mPa·s
  speed of sound: 1534.3 ± 1.8 m/s
  mass density: 1004.83 ± 0.37 kg/m3
308.15 K, m1 = 0.2999
  viscosity: 0.7611 ± 0.032 mPa·s
  speed of sound: 1537.6 ± 1.8 m/s
  mass density: 1006.92 ± 0.37 kg/m3
313.15 K, m1 = 0.05002
  viscosity: 0.6558 ± 0.032 mPa·s
  speed of sound: 1531.4 ± 1.8 m/s
  mass density: 994.421 ± 0.37 kg/m3
313.15 K, m1 = 0.1001
  viscosity: 0.6627 ± 0.032 mPa·s
  speed of sound: 1534.2 ± 1.8 m/s
  mass density: 996.578 ± 0.37 kg/m3
313.15 K, m1 = 0.15
  viscosity: 0.6688 ± 0.032 mPa·s
  speed of sound: 1537.1 ± 1.8 m/s
  mass density: 998.702 ± 0.37 kg/m3
313.15 K, m1 = 0.2003
  viscosity: 0.6756 ± 0.032 mPa·s
  speed of sound: 1540.2 ± 1.8 m/s
  mass density: 1000.82 ± 0.37 kg/m3
313.15 K, m1 = 0.2502
  viscosity: 0.682 ± 0.032 mPa·s
  speed of sound: 1543.3 ± 1.8 m/s
  mass density: 1002.91 ± 0.37 kg/m3
313.15 K, m1 = 0.2999
  viscosity: 0.6881 ± 0.032 mPa·s
  speed of sound: 1546.6 ± 1.8 m/s
  mass density: 1004.97 ± 0.37 kg/m3
